Test results: publication PMC5485171 (Diabetes, Obesity & Metabolism, 2017)

Tested on: patients with type 2 diabetes
Experiment: Adverse events
Assay type: in vivo, human
[1] = 28 weeks, as‐treated, number (%) of patients, n = 181 / 122
[2] = 28 weeks, most common AEs (≥5% of patients)

## N[C@@H](CC(=O)N1CCn2c(nnc2C(F)(F)F)C1)Cc1cc(F)c(F)cc1F [Sitagliptin, sitagliptin]
28 weeks
  symptoms of hypoglycaemia, number of recipients: 7 recipients
[1]
  AEs leading to withdrawal: 0 (0.0) n (%)
  Cardiovascular events (adjudicated): 0 (0.0) n (%)
  Gastrointestinal AEs: 9 (7.4) n (%)
  Gastrointestinal AEs: Diarrhea: 2 (1.6) n (%)
  Gastrointestinal AEs: Dyspepsia: 1 (0.8) n (%)
  Gastrointestinal AEs: Nausea: 2 (1.6) n (%)
  Gastrointestinal AEs: Vomiting: 0 (0.0) n (%)
  Hypoglycaemia: Major: 0 (0.0) n (%)
  Injection‐site‐related AEs: 0 (0.0) n (%)
  Injection‐site‐related AEs: Bruising: 0 (0.0) n (%)
  Injection‐site‐related AEs: Induration: 0 (0.0) n (%)
  Injection‐site‐related AEs: Nodules: 0 (0.0) n (%)
  Injection‐site‐related AEs: Pruritus: 0 (0.0) n (%)
  Pancreatic cancer (adjudicated): 0 (0.0) n (%)
  Pancreatitis (adjudicated): 0 (0.0) n (%)
  Renal failure: 0 (0.0) n (%)
  Serious AEs: 0 (0.0) n (%)
  Symptoms of hypoglycaemia: 7 (5.7) n (%)
  Thyroid neoplasms (adjudicated): 0 (0.0) n (%)
[2]
  nasopharyngitis, proportion of patients: 0.0%
  nausea, proportion of patients: 1.6%
28 weeks, symptoms and glucose <54 mg/dL, number (%) of patients, n = 181 / 122
  Hypoglycaemia: Minor: 1 (0.8) n (%)
28‐week treatment period
  AEs reported, proportion of recipients: 32.8%
28‐week treatment period, as‐treated, exenatide 2.0 mg QW sc (n = 181), sitagliptin 100 mg once daily oral (n = 122), number (%) of patients
  Any AE: 40 (32.8) n (%)
